Data on 35 molecules can be found in ChEMBL document CHEMBL1139221, “2-(4-Chlorobenzyl)-3-hydroxy-7,8,9,10-tetrahydrobenzo[H]quinoline-4-carboxylic acid (PSI-697): identification of a clinical candidate from the quinoline salicylic acid series of P-selectin antagonists” (J Med Chem, 2007).

The source made the active and inactive calls. The rule behind the calls is not given here.

The first test concerns the target T1, P-selectin (Homo sapiens) (UniProt P16109).
T1 sequence (whole entry): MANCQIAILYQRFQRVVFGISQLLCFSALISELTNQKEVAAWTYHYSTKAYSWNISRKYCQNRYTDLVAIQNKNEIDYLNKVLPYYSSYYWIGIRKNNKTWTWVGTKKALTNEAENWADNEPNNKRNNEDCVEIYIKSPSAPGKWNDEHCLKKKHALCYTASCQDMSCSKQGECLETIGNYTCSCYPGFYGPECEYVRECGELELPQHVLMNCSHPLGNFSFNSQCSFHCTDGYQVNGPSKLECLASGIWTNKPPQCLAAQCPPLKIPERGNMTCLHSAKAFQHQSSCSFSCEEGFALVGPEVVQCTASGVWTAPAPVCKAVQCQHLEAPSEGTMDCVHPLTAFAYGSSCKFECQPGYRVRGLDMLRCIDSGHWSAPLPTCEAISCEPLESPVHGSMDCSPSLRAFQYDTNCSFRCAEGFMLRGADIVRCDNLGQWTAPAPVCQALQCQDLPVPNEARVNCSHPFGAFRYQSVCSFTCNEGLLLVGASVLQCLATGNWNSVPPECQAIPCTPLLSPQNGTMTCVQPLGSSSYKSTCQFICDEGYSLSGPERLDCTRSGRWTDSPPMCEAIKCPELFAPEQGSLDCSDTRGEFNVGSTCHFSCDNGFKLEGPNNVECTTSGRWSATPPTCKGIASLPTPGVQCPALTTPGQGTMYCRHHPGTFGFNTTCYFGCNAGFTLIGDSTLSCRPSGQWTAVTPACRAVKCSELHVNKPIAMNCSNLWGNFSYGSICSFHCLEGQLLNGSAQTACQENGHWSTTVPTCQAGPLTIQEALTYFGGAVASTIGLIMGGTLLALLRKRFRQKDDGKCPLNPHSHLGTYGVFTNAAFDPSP
The experiment in a line: Inhibition of P-Selectin by Biacore assay at 500 uM.
As to `CC(C)(C)c1cccc2c(C(=O)O)c(O)c(Cc3ccc(Cl)cc3)nc12`, the inhibition (commonly the share of the control response that was lost under treatment) was 12%. Still for that read-out and setting: with `CCc1ccc2c(C(=O)O)c(O)c(Cc3ccc(Cl)cc3)nc2c1` the figure was 19%. In turn, `CCc1cccc2c(C(=O)O)c(O)c(Cc3c[nH]c4ccccc34)nc12` displayed an inhibition of 19%.

In the next test the target is T1, P-selectin (Homo sapiens). Description: (§1) Inhibition of P-Selectin by Biacore assay. A general note: SPR reads the build-up and loss of mass on a sensor chip optically.
In the case of `O=C(O)c1c(O)c(Cc2c[nH]c3ccccc23)nc2ccc(OC(F)(F)F)cc12`, the outcome was inactive. `O=C(O)c1c(O)c(Cc2c[nH]c3ccccc23)nc2cc(Br)ccc12`: the result was inactive. With `O=C(O)c1c(O)c(Cc2c[nH]c3ccccc23)nc2ccc(Br)cc12`, the result was inactive.

For the molecule `CC(C)OC(=O)n1cc(Cc2nc3c4c(ccc3c(C(=O)O)c2O)CCCC4)c2ccccc21`, the result was inactive. Turning to `O=C(O)c1c(O)c(Cc2c[nH]c3ccccc23)nc2ccc(F)cc12`, the outcome was inactive.

Take `O=C(O)c1c(O)c(Cc2ccc(Cl)cc2)nc2ccccc12`: the outcome was inactive. Same read-out and setting: the same measure for `NC(=O)N1CCc2ccc3c(C(=O)O)c(O)c(Cc4ccc(Cl)cc4)nc3c2C1`: “inactive”; for `Cc1ccc2c(C(=O)O)c(O)c(Cc3c[nH]c4ccccc34)nc2c1`: “inactive”; for `O=C(O)c1c(O)c(Cc2cn(C(=O)Cc3ccccc3)c3ccccc23)nc2c3c(ccc12)CCCC3`: “inactive”. Same read-out and setting: with `O=C(O)c1c(O)c(Cc2c[nH]c3ccccc23)nc2c(F)cccc12` the entry was “inactive”; with `CC(=O)N1CCc2ccc3c(C(=O)O)c(O)c(Cc4ccc(Cl)cc4)nc3c2C1`, “inactive”. The same measure, in the same setting: with `Cc1ccc2nc(Cc3c[nH]c4ccccc34)c(O)c(C(=O)O)c2c1` the entry was “inactive”; with `O=C(O)c1c(O)c(Cc2ccc(Cl)cc2)nc2c3c(ccc12)CCN(C(=O)c1ccccc1)C3`, “inactive”; with `CC(C)N1CCc2ccc3c(C(=O)O)c(O)c(Cc4ccc(Cl)cc4)nc3c2C1`, “inactive”. As for `O=C(O)c1c(O)c(Cc2c[nH]c3ccccc23)nc2c(Cl)cccc12`, the result was inactive.

For the molecule `COc1ccc(-c2ccccc2)c2nc(Cc3ccc(Cl)cc3)c(O)c(C(=O)O)c12`, the result was inactive. On the same count and under the same terms, with `O=C(O)c1c(O)c(Cc2ccc(Cl)cc2)nc2c3c(ccc12)CCN(Cc1ccccc1)C3` the entry was “inactive”; with `O=C(O)c1c(O)c(Cc2csc3ccc(Cl)cc23)nc2c3c(ccc12)CCCC3`, “inactive”. The same measure, in the same setting: with `CCOC(=O)N1CCc2ccc3c(C(=O)O)c(O)c(Cc4ccc(Cl)cc4)nc3c2C1` the entry was “inactive”. On the same count and under the same terms, with `CCc1ccc2c(C(=O)O)c(O)c(Cc3c[nH]c4ccccc34)nc2c1` the entry was “inactive”. For `O=C(O)c1c(O)c(Cc2c[nH]c3ccccc23)nc2ccccc12`, the result was inactive. The same measure, in the same setting: with `O=C(OCc1ccccc1)c1c(OCc2ccccc2)c(Cc2ccc(Cl)cc2)nc2c3c(ccc12)CCCC3` the entry was “inactive”; with `O=C(O)c1c(Cc2ccc(Cl)cc2)nc2c3c(ccc2c1O)CCCC3`, “inactive”. Same read-out and setting: with `O=C(O)c1c(O)c(Cc2ccc(Cl)cc2)nc2c3c(ccc12)CCNC3` the entry was “inactive”; with `CCN1CCc2ccc3c(C(=O)O)c(O)c(Cc4ccc(Cl)cc4)nc3c2C1`, “inactive”.

The next test addresses T2, P-selectin (Homo sapiens, UniProt P16109).
T2 sequence (P16109 whole entry): T1 sequence (whole entry)
The test is described as §1.
For the molecule `Cc1cccc2c(C(=O)O)c(O)c(Cc3ccc(Cl)cc3)nc12`, 1000 µM corresponded to half-maximal inhibition (IC50).

With `Cc1ccc2c(C(=O)O)c(O)c(-c3ccccc3)nc2c1C`, the concentration for half-maximal inhibition (IC50) (usually the concentration needed to halve the response being measured) worked out at 1500 µM. Same read-out and setting: the same measure for `O=C(O)c1c(O)c(CCc2ccccc2)nc2c3c(ccc12)CCCC3`: 450 µM. `N#Cc1ccc(Cc2nc3c4c(ccc3c(C(=O)O)c2O)CCCC4)cc1` registered a 50% inhibitory concentration (IC50) of 500 µM.

For the molecule `O=C(O)c1c(OC(=O)C2CCCCC2)c(Cc2ccc(Cl)cc2)nc2c3c(ccc12)CCCC3`, the IC50 was 175 µM.

With `CCc1cccc2c(C(=O)O)c(O)c(Cc3ccc(Cl)cc3)nc12`, the IC50 was 250 µM. This IC50 and that of the molecule before are within 1.5-fold of each other. In turn, `O=C(O)c1c(O)c(Cc2coc3ccccc23)nc2c3c(ccc12)CCCC3` had a half-inhibitory concentration (IC50) of 225 µM.
